Test [1] concerns acetylcholine induced abdominal constriction. Nature of the test: prevention of acetylcholine induced abdominal constriction in mice. Format: in vivo. Particulars: for ED50: Mus musculus, 0.5 h, analgesic alone, oral, mice, acetylcholine challenge 30 minutes after treatment. As for the experimental part:
Mature, male Swiss-Webster mice (weighing 25-30 g) were utilized in determining the analgesic effects of the compositions. The mice were all dosed orally with glucosamine sulfate, which was completely dissolved in distilled water, and a selected analgesic (ibuprofen, diclofenac, tramadol HCl, or acetaminophen), which was completely dissolved in distilled water or in distilled water containing 2% by volume of TWEEN®-80 containing 100% polysorbate 80. Mice were dosed at 10 mL/kg.
The procedure used in detecting and comparing the analgesic activity of different classes of analgesic drugs was the prevention of acetylcholine induced abdominal constriction in mice.
Mice were treated with various doses of glucosamine sulfate alone, analgesic alone, combined doses of glucosamine sulfate and analgesic, or vehicle such as distilled water containing 2% by volume of TWEEN®-80. Intraperitoneal injection of a challenge dose of acetylcholine bromide was administered 30 minutes after treatment. […] For scoring purposes an “abdominal constriction” was defined as a contraction of the abdominal musculature accompanied by arching of the back and extension of the limbs. […] Each mouse was tested only once.
Doses of the combinations were coded to permit complete randomization of the tests.

For test [2] the test system is unchanged. The description is as above. In kind it is in vivo.

Structures can show the parent of a compound that is named as a salt. Where two headings read alike, the source gives them in different places.

This note sets out measurements from US6900189B2, “Analgesic and glucosamine compositions” (priority 2000, dated 2005).

For the compound `CC(=O)Nc1ccc(O)cc1` [Acetaminophen], the No. protected/no. tested in test [1] (acetaminophen 62.5 mg/kg alone) is on record as 1/10; in test [1] (acetaminophen 125 mg/kg alone) it was 4/10; in test [1] (acetaminophen 250 mg/kg alone), 8/10.
As to `CC(=O)Oc1ccccc1C(=O)O` [Aspirin], the No. protected/no. tested in test [2] (ASA 50 mg/kg alone) was 1/10; in test [2] (ASA 100 mg/kg alone), 4/10; in test [2] (ASA 150 mg/kg alone) it was 8/10; in test [2] (ASA 200 mg/kg alone) it was 7/10. In addition, in test [1], the 50% effective dose (ED50) (commonly the dose at which the effect has come halfway, by size or by number of responders) was 109 mg/kg.
Regarding `O=C(O)Cc1ccccc1Nc1c(Cl)cccc1Cl` [Diclofenac], the ED50 in test [1] was 1.14 mg/kg.
As to `CC(C)Cc1ccc(C(C)C(=O)O)cc1` (centres unmarked) [Ibuprofen, 2-(p-isobutylphenyl)propionic acid], the No. protected/no. tested was 6/10 in test [2] (ibuprofen 27.8 mg/kg alone); 6/10 in test [2] (ibuprofen 30.0 mg/kg alone); 1/10 in test [1] (ibuprofen 10 mg/kg alone); 1/10 in test [1] (ibuprofen 13.91 mg/kg alone); 4/10 in test [1] (ibuprofen 20.0 mg/kg alone); 8/10 in test [1] (ibuprofen 41.74 mg/kg alone). Besides, the No. protected/no. tested in test [1] (ibuprofen 100 mg/kg alone) is given as 9/10. Also, in test [1], the ED50 turned out to be 26.1 ± 3.41 mg/kg.
For `COc1ccc2c(c1)c(CC(=O)O)c(C)n2C(=O)c1ccc(Cl)cc1` [Indomethacin], the No. protected/no. tested is listed as 4/10 in test [2] (indomethacin 2.5 mg/kg alone), 6/10 in test [2] (indomethacin 5.0 mg/kg alone) and 7/10 in test [2] (indomethacin 10.0 mg/kg alone). For the same compound, in test [1], the ED50 was 3.66 mg/kg.
As for `CC(C)Cc1ccc([C@H](C)C(=O)O)cc1` [S(+) Ibuprofen], the No. protected/no. tested in test [2] (Group A: S(+) ibuprofen 15 mg/kg alone) is on record as 2/10; in test [2] (Group B: S(+) ibuprofen 30 mg/kg alone), 4/10; in test [2] (Group C: S(+) ibuprofen 60 mg/kg alone), 6/10; in test [2] (Group D: S(+) ibuprofen 120 mg/kg alone), 7/10.
For `COc1cccc(C2(O)CCCCC2CN(C)C)c1` (centres unmarked) [Tramadol HCl], the ED50 in test [2] (Mus musculus, 0.5 h, read-out: ED50 (alone)) was 8.05 mg/kg.
